Reference: patent US6656509B1, “Combination of selenium-containing compounds with cytostatics” (Biosyn Arzneimittel GmbH, priority 1998, dated 2003)

Legend:
[1] = tested on: pancreatic cancer xenograft PAXF 546; assay: clonogenic assay, single agents and combination studies; type: cell-based, human; settings: observed; X261, X295
Protocol: (§1) The cell mixture was passed through sieves of 200 μm and 50 μm mesh size and washed thereafter twice with PBS. The percentage of viable cells was determined in a Neubauer counting chamber using trypan blue exclusion.
(§2) 8×10^3 to 1,6×10^4 cells were added to 0.2 ml of the same culture medium together with 0.4% agar and placed in already coated 24-multiwell dishes. Test substances were applied by continuous exposure (drug overlay) in 0.2 ml medium. Every dish included six control wells containing the vehicle- and drug-treated groups in triplicate at six concentrations.
(§3) Cultures were incubated at 37° and 7% CO2 in a humidified atmosphere for 5 to 15 days (depending on the doubling time of the tumor stem cells) and monitored for colony growth using an inverted microscope. Within this period, in vitro tumor growth led to the formation of colonies with a diameter of ≧50 μm. At the time of maximum colony formation counts were performed with an automatic image analysis system (OMNICOM Fas IV, Biosys GmbH). […] Drug effects were expressed in terms of the percentage of surviving cells, obtained by comparison of the mean number of colonies in the treated plates with the mean colony count of the untreated controls (test-versus-control-group value, T/C=colony countTreated Group*100/colony countControl Group).
(§4) Coefficient of variation in the control group ≦50%. IC50 and IC70 values were determined by plotting compound concentration versus cell survival rate. Mean IC50 and IC70 values were calculated according to the formula: [formula]
(§5) with x=specific tumor xenograft and n=total number of tumor xenografts studied. If an IC50 or IC70 value could not be determined within the examined dose range, the lowest or highest concentration studied was used for the calculation.
(§6) Each experiment included the chemotherapeutic agents in 6 concentrations, selenium in 2 concentrations (3 and 30 μM), and the combination of all doses with selenium at 3 and 30 μM. All compounds and combinations were studied in triplicates. […] Each experiment was performed twice.
(§7) T/Cexpectd(A+B)=T/C(A)×T/C(B)/100
(§8) For a zero-interactive drug combination (additivity of drug effects) T/Cexpected(A+B)[…]T/Cobserved(A+B). A drug combination is synergistic if T/Cobserved(A+B) is statistically significant[…]T/Cexpected(A+B). Statistical significance was determined by the T-test.

[2] = tested on: pancreatic cancer xenograft PAXF 736; assay: as above; type: cell-based, human; settings: (X261, X295)
Protocol: as §1, §2, §3, §4, §5, §6, §7, §8

Nc1ccn([C@@H]2O[C@H](CO)[C@@H](O)C2(F)F)c(=O)n1 [Gemcitabine]
T/C in % at a gemcitabine concentration (μM) [1]: 85 ± 15%
T/C in % at a gemcitabine concentration (μM) of 1.0 [1]: 30 ± 6%
T/C in % at a gemcitabine concentration (μM) of 1 × 10^−1 [1]: 48 ± 8%
T/C in % at a gemcitabine concentration (μM) of 1 × 10^−2 [1]: 61± 11%
T/C in % at a gemcitabine concentration (μM) of 1 × 10^−3 [1]: 83 ± 12%
T/C in % at a gemcitabine concentration (μM) of 1 × 10^−4 [1]: 80 ± 12%
T/C in % at a gemcitabine concentration (μM) of 1 × 10^−5 [1]: 73 ± 20%
T/C in % at a gemcitabine concentration (μM) of 1 × 10^−1 ([2]; gemcitabine alone): 30 ± 8%
T/C in % at a gemcitabine concentration (μM) of 1 × 10^−2 ([2]; gemcitabine alone): 71± 10%
T/C in % at a gemcitabine concentration (μM) of 1 × 10^−3 ([2]; gemcitabine alone): 77 ± 13%
T/C in % at a gemcitabine concentration (μM) of 1 × 10^−4 ([2]; gemcitabine alone): 84 ± 12%
T/C in % at a gemcitabine concentration (μM) of 1 × 10^−5 ([2]; gemcitabine alone): 78 ± 14%
T/C in % at a gemcitabine concentration (μM) of 1 × 10^−6 ([2]; gemcitabine alone): 89 ± 11%

CO[C@@]12[C@H](COC(N)=O)C3=C(C(=O)C(C)=C(N)C3=O)N1C[C@@H]1N[C@@H]12 [Mitomycin C]
T/C in % at a mitomycin C concentration (μM) [1]: 87 ± 11%
T/C in % at a mitomycin C concentration (μM) of 1.0 [1]: 5 ± 2%
T/C in % at a mitomycin C concentration (μM) of 1 × 10^−1 [1]: 57 ± 8%
T/C in % at a mitomycin C concentration (μM) of 1 × 10^−2 [1]: 80± 12%
T/C in % at a mitomycin C concentration (μM) of 1 × 10^−3 [1]: 70 ± 13%
T/C in % at a mitomycin C concentration (μM) of 1 × 10^−4 [1]: 70 ± 10%
T/C in % at a mitomycin C concentration (μM) of 1 × 10^−5 [1]: 84 ± 14%
T/C in % at a mitomycin C concentration (μM) of 1 × 10^−1 ([2]; mitomycin C alone): 11 ± 7%
T/C in % at a mitomycin C concentration (μM) of 1 × 10^−2 ([2]; mitomycin C alone): 30± 7%
T/C in % at a mitomycin C concentration (μM) of 1 × 10^−3 ([2]; mitomycin C alone): 46 ± 8%
T/C in % at a mitomycin C concentration (μM) of 1 × 10^−4 ([2]; mitomycin C alone): 56 ± 11%
T/C in % at a mitomycin C concentration (μM) of 1 × 10^−5 ([2]; mitomycin C alone): 58 ± 10%
T/C in % at a mitomycin C concentration (μM) of 1 × 10^−6 ([2]; mitomycin C alone): 77 ± 13%
